The record followed here is US8394355B2, “Use of UTP for the diagnosis of stenoses and other conditions of restricted blood flow” (P2 science Aps, priority 2009, dated 2013).

Data set [1] deals with infarct area during acute myocardial infarction. The data set is described as follows: ADP or UTP infusion during myocardial infarction in pigs (unpublished). Type of data set: in vivo. The conditions noted are these: infused during acute myocardial infarction, unpublished results. From the text: This is clearly in contrast to previous findings, but is more clinically relevant as most cardiac patients are older. […] This conclusion is also supported by another study by the present inventor in pigs where ADP or UTP was infused during myocardial infarction. […] Therefore, the previous assumptions in patent application WO 2007/065437 relating to the regulation of purinergic receptor activity to modulate vascular tone, particularly for treating hemodynamic conditions by overriding vasoconstriction activity, which could potentially have clinical applications for treatment with UTP agonists or antagonists, is incorrect.

A short description of data set [2]: Kinetics of UTP in the circulation. Type of data set: in vivo. The conditions noted are these: for half-life: in the circulation, read-out: terminal half-life (converted).

Where two headings read alike, the source gives them in different places.

The half-life is how long it takes for the measured level to halve. For `O=c1ccn([C@@H]2O[C@H](COP(=O)(O)OP(=O)(O)OP(=O)(O)O)C(O)[C@@H]2O)c(=O)[nH]1` (stereo partly shown) [UTP, Uridine 5-triphosphate], the “effect on infarct area” value in data set [1] is “increased the infarct area”. For the same molecule, the half-life in data set [2] (blood (the circulation)) is approximately 20 s. Besides, in data set [2] (in vivo), the time to peak was determined as 5 s and the half-life was 20 s.
